From ChEMBL document CHEMBL1149975, “Synthesis of C2-symmetrical polyhydroxyazepanes as inhibitors of glycosidases” (Bioorg Med Chem Lett, 1996) come the findings set out here.

Experiment [1] can be described thus: Compound was tested for inhibition of beta-N-acetylglucosaminidase from jack beans. On the set-up: species or system Canavalia ensiformis.
The target of experiment [2] is T1, Beta-galactosidase (Aspergillus niger, UniProt P29853).
T1 sequence (P29853 whole entry): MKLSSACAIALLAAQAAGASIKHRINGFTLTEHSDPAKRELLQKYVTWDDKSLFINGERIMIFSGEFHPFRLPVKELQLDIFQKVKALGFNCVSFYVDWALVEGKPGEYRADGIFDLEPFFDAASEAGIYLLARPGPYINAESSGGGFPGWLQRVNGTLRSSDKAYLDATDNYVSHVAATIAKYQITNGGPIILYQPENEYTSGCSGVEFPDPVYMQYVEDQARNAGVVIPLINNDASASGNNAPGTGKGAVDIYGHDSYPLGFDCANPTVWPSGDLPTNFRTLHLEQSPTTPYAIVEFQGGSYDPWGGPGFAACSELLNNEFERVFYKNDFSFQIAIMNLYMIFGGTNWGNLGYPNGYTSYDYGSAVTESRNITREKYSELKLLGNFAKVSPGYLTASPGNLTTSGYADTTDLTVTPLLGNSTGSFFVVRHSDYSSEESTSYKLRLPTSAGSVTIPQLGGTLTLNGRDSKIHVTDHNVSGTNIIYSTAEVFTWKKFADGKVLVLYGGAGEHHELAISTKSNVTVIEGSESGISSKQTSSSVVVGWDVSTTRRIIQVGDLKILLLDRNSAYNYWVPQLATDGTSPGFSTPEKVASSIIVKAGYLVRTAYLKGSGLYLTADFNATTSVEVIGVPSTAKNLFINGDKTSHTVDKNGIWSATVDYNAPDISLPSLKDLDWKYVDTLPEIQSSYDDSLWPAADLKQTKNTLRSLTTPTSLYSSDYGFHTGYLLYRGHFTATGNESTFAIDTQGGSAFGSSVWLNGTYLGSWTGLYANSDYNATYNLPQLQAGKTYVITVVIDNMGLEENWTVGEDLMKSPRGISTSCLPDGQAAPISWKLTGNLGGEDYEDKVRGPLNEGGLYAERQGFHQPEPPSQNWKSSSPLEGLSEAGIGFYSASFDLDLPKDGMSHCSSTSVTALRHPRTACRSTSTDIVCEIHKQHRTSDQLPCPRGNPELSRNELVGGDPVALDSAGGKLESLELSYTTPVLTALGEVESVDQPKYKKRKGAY
The experiment in a line: Compound was tested for inhibition of beta-galactosidase from aspergillus niger.

Experiment [3] is described as follows: Compound was tested for inhibition of alpha-mannosidase from jack beans. On the set-up: species or system Canavalia ensiformis.
In experiment [4] the test system is Canavalia ensiformis. Description: Compound was tested for % inhibition of alpha-mannosidase from jack beans. The following applies: concentration not given here.
In experiment [5] the test system is alpha-galactosidase (Coffea arabica). The experiment in a line: Compound was tested for inhibition of alpha-galactosidase from green coffee beans; NI means no inhibition.
Experiment [6] concerns Alpha-glucosidase (Saccharomyces cerevisiae). The experiment in a line: Compound was tested for % inhibition of alpha-glucosidase from yeast. The following applies: concentration not given here.
Experiment [7] addresses T1, Beta-galactosidase. The experiment in a line: Compound was tested for inhibition of beta-galactosidase from aspergillus niger; NI means no inhibition.
For experiment [8], the system named is beta-glucosidase (Prunus dulcis). Description: Compound was tested for % inhibition of beta-glucosidase from sweet almonds. The following applies: concentration not given here.
The test system of experiment [9] is Canavalia ensiformis. Description: Compound was tested for % inhibition of beta-N-acetylglucosaminidase from jack beans. The following applies: concentration not given here.
A short description of experiment [10]: Compound was tested for inhibition of alpha-mannosidase from jack beans; NI means no inhibition. On the set-up: species or system Canavalia ensiformis.

With `O[C@H]1[C@H](O)[C@@H](O)CNC[C@@H]1O`, the Ki (usually the equilibrium dissociation constant of an inhibitor or competing ligand from its target) came to 22.7 µM in [1], 6.5 µM on Beta-galactosidase [2] and 25.7 µM in experiment [3].

For `O[C@H]1[C@H](O)[C@H](O)CN(Cc2ccccc2)C[C@H]1O`, the inhibition (in general, how much of the control response was suppressed) came out at 11% with Canavalia ensiformis [4], 6% in [6], 14% in experiment [8] and 6% in the experiment with Canavalia ensiformis [9]. In addition, the Ki entry (in experiment [5]; on Beta-galactosidase [7]) was “No inhibition” throughout.

Take `O[C@H]1[C@H](O)[C@H](O)CNC[C@H]1O`: the Ki in experiment [1] was 4.6 µM; at Beta-galactosidase [7], “No inhibition”; in experiment [10], “No inhibition”.
